Assay [1] has as its system HeLa cells. Put plainly: Uptake of endocytic markers after inhibitor treatment. The format is cell-based, human.
The next assay deals with cell membranes. The note with it: studies in fixed cells; cited from earlier work.
For assay [2], the system named is HeLa cells. The assay can be described thus: Cellular uptake by live cell confocal fluorescence microscopy. The class given is cell-based, human.
For assay [3], the system named is HeLa cells. The assay can be described thus: Actin filament visualization with rhodamine-phalloidin in fixed cells. The class given is cell-based, human. Particulars: 2 μM for 30 min at 37°C, rhodamine-phalloidin and DAPI.

`CCN(c1nc(N)c(C(=O)NC(=N)N)nc1Cl)C(C)C` [EIPA, 5-(N-ethyl-N-isopropyl)amiloride]: in the assay with HeLa cells [1] (50 μM EIPA), the “Effect on uptake of 10K-Dex” value is given as “significantly inhibited” and the “Effect on uptake of CTX-B” value is recorded as “significantly inhibit”. Further, the “Effect on uptake of EGF” value in the assay with HeLa cells [1] (50 μM EIPA, data not shown) was “no or little effect”.
For kalata B1, in the assay with cell membranes, the “Affinity for proteins or lipids in cell membranes” value is “shows membrane affinity”.
As for “AF488-MCoTI-I: MCoTI-I site-specifically labeled with AlexaFluor488 through the ε-amino of residue Lys4 in loop 1 (SGSDGGVCPKILQRCRRDSDCPGACICRGNGYCG; not fully specified; AlexaFluor488 on Lys4; UniProt P82408 1-34, looked up)”, the “Surface binding at 4°C” value with HeLa cells [2] (25 μM, 4°C, live HeLa cells) was “no significant surface binding”. Besides, the “Internalization at 4°C” value in the assay on HeLa cells [2] (25 μM, 1 h incubation at 4°C, completely reversible on 1 h at 37°C) is “totally inhibited”. Also, the “Internalization (intracellular distribution)” value in the assay on HeLa cells [2] (25 μM, 1 h incubation at 37°C, serum-free DMEM, live HeLa cells, confocal fluorescence) is reported as “clearly visible within perinuclear punctate spots inside the cells”. Also, the “Inhibition of cellular uptake by EIPA” value in the assay on HeLa cells [2] (50 μM EIPA for 30 min at 37°C before 25 μM cyclotide, 1 h uptake) is recorded as “≈ 80%”.
For `C/C1=C/C(=O)O[C@@H]2C[C@@H](CC[C@H](C)/C=C\CC1)O[C@@](O)([C@@H]1CSC(=O)N1)C2` [Lat B, Latrunculin B], the “Effect on actin filament network” value in the assay on HeLa cells [3] is given as “total disruption of the actin filament network”. Also, the “Effect on uptake of 10K-Dex” value in the assay with HeLa cells [1] (2 μM Lat B, data not shown) is listed as “did not significantly inhibit”.

(Values after paper PMC3195939 (Journal of controlled release : official journal of the …, 2011).)
